# Assays:
# MCF7 = assay: panel of 60 human tumor cell lines, growth inhibition (Breast Cancer); conditions: MCF7
# SK-OV-3 = assay: panel of 60 human tumor cell lines, growth inhibition (Ovarian Cancer); conditions: SK-OV-3
# IGROV1 = assay: as above; conditions: IGROVI
# HT29 = assay: panel of 60 human tumor cell lines, growth inhibition (Colon Cancer); conditions: HT29
# TK-10 = assay: panel of 60 human tumor cell lines, growth inhibition (Renal Cancer); conditions: TK-10
# SW-620 = assay: panel of 60 human tumor cell lines, growth inhibition (Colon Cancer); conditions: SW-620
# MDA-MB-231/ATCC = assay: panel of 60 human tumor cell lines, growth inhibition (Breast Cancer); conditions: MDA-MB-231/ATCC
# SF-268 = assay: panel of 60 human tumor cell lines, growth inhibition (CNS Cancer); conditions: SF-268
# CAKI-1 = assay: panel of 60 human tumor cell lines, growth inhibition (Renal Cancer); conditions: CAKI-1
smiles,measurement,setting,value
C=C1C(=O)O[C@H]2[C@H]1CC/C(COC(=O)N1CCN(C)CC1)=C\CC[C@@]1(C)O[C@@H]21 [JVM 2-44],GI50,MCF7,3.14 µM
same,TGI,MCF7,1.44E−5
same,Mean Optical Densities,MCF7; Log10 Concentration −4.0,0.116
same,Percent Growth,MCF7; Log10 Concentration −4.0,−68%
same,Mean Optical Densities,MCF7; Log10 Concentration −5.0,0.561
same,Percent Growth,MCF7; Log10 Concentration −5.0,13%
same,Mean Optical Densities,MCF7; Log10 Concentration −6.0,1.725
same,Percent Growth,MCF7; Log10 Concentration −6.0,87%
same,Mean Optical Densities,MCF7; Log10 Concentration −7.0,1.666
same,Percent Growth,MCF7; Log10 Concentration −7.0,83%
same,Mean Optical Densities,MCF7; Log10 Concentration −8.0,1.767
same,Percent Growth,MCF7; Log10 Concentration −8.0,89%
same,GI50,SK-OV-3,31.8 µM
same,TGI,SK-OV-3,>1.00E−4
same,Mean Optical Densities,SK-OV-3; Log10 Concentration −4.0,1.032
same,Percent Growth,SK-OV-3; Log10 Concentration −4.0,4%
same,Mean Optical Densities,SK-OV-3; Log10 Concentration −5.0,1.852
same,Percent Growth,SK-OV-3; Log10 Concentration −5.0,96%
same,Mean Optical Densities,SK-OV-3; Log10 Concentration −6.0,1.892
same,Percent Growth,SK-OV-3; Log10 Concentration −6.0,101%
same,Mean Optical Densities,SK-OV-3; Log10 Concentration −7.0,1.808
same,Percent Growth,SK-OV-3; Log10 Concentration −7.0,91%
same,Mean Optical Densities,SK-OV-3; Log10 Concentration −8.0,1.885
same,Percent Growth,SK-OV-3; Log10 Concentration −8.0,100%
same,GI50,IGROV1,11.1 µM
same,TGI,IGROV1,2.99E−5
same,Mean Optical Densities,IGROV1; Log10 Concentration −4.0,0.249
same,Percent Growth,IGROV1; Log10 Concentration −4.0,−65%
same,Mean Optical Densities,IGROV1; Log10 Concentration −5.0,1.363
same,Percent Growth,IGROV1; Log10 Concentration −5.0,59%
same,Mean Optical Densities,IGROV1; Log10 Concentration −6.0,1.902
same,Percent Growth,IGROV1; Log10 Concentration −6.0,107%
same,Mean Optical Densities,IGROV1; Log10 Concentration −7.0,1.888
same,Percent Growth,IGROV1; Log10 Concentration −7.0,106%
same,Mean Optical Densities,IGROV1; Log10 Concentration −8.0,1.866
same,Percent Growth,IGROV1; Log10 Concentration −8.0,104%
same,GI50,HT29,5.54 µM
same,TGI,HT29,1.95E−5
same,Mean Optical Densities,HT29; Log10 Concentration −4.0,0.873
same,Percent Growth,HT29; Log10 Concentration −4.0,−70%
same,Mean Optical Densities,HT29; Log10 Concentration −5.0,0.502
same,Percent Growth,HT29; Log10 Concentration −5.0,28%
same,Mean Optical Densities,HT29; Log10 Concentration −6.0,1.268
same,Percent Growth,HT29; Log10 Concentration −6.0,112%
same,Mean Optical Densities,HT29; Log10 Concentration −7.0,1.248
same,Percent Growth,HT29; Log10 Concentration −7.0,110%
same,Mean Optical Densities,HT29; Log10 Concentration −8.0,1.216
same,Percent Growth,HT29; Log10 Concentration −8.0,107%
same,GI50,TK-10,3.91 µM
same,TGI,TK-10,1.53E−5
same,Mean Optical Densities,TK-10; Log10 Concentration −4.0,0.069
same,Percent Growth,TK-10; Log10 Concentration −4.0,−94%
same,Mean Optical Densities,TK-10; Log10 Concentration −5.0,1.338
same,Percent Growth,TK-10; Log10 Concentration −5.0,21%
same,Mean Optical Densities,TK-10; Log10 Concentration −6.0,2.166
same,Percent Growth,TK-10; Log10 Concentration −6.0,92%
same,Mean Optical Densities,TK-10; Log10 Concentration −7.0,2.198
same,Percent Growth,TK-10; Log10 Concentration −7.0,95%
same,Mean Optical Densities,TK-10; Log10 Concentration −8.0,2.185
same,Percent Growth,TK-10; Log10 Concentration −8.0,94%
same,GI50,SW-620,3.67 µM
same,TGI,SW-620,1.49E−5
same,Mean Optical Densities,SW-620; Log10 Concentration −4.0,0.080
same,Percent Growth,SW-620; Log10 Concentration −4.0,−78%
same,Mean Optical Densities,SW-620; Log10 Concentration −5.0,0.753
same,Percent Growth,SW-620; Log10 Concentration −5.0,16%
same,Mean Optical Densities,SW-620; Log10 Concentration −6.0,2.599
same,Percent Growth,SW-620; Log10 Concentration −6.0,94%
same,Mean Optical Densities,SW-620; Log10 Concentration −7.0,2.683
same,Percent Growth,SW-620; Log10 Concentration −7.0,97%
same,Mean Optical Densities,SW-620; Log10 Concentration −8.0,2.698
same,Percent Growth,SW-620; Log10 Concentration −8.0,98%
same,GI50,MDA-MB-231/ATCC,10.4 µM
same,TGI,MDA-MB-231/ATCC,2.64E−5
same,Mean Optical Densities,MDA-MB-231/ATCC; Log10 Concentration −4.0,0.200
same,Percent Growth,MDA-MB-231/ATCC; Log10 Concentration −4.0,−72%
same,Mean Optical Densities,MDA-MB-231/ATCC; Log10 Concentration −5.0,1.153
same,Percent Growth,MDA-MB-231/ATCC; Log10 Concentration −5.0,52%
same,Mean Optical Densities,MDA-MB-231/ATCC; Log10 Concentration −6.0,1.525
same,Percent Growth,MDA-MB-231/ATCC; Log10 Concentration −6.0,95%
same,Mean Optical Densities,MDA-MB-231/ATCC; Log10 Concentration −7.0,1.568
same,Percent Growth,MDA-MB-231/ATCC; Log10 Concentration −7.0,106%
same,Mean Optical Densities,MDA-MB-231/ATCC; Log10 Concentration −8.0,1.619
same,Percent Growth,MDA-MB-231/ATCC; Log10 Concentration −8.0,106%
same,GI50,SF-268,13.5 µM
same,TGI,SF-268,3.19E−5
same,Mean Optical Densities,SF-268; Log10 Concentration −4.0,0.188
same,Percent Growth,SF-268; Log10 Concentration −4.0,−66%
same,Mean Optical Densities,SF-268; Log10 Concentration −5.0,1.432
same,Percent Growth,SF-268; Log10 Concentration −5.0,67%
same,Mean Optical Densities,SF-268; Log10 Concentration −6.0,1.625
same,Percent Growth,SF-268; Log10 Concentration −6.0,97%
same,Mean Optical Densities,SF-268; Log10 Concentration −7.0,1.839
same,Percent Growth,SF-268; Log10 Concentration −7.0,9B
same,Mean Optical Densities,SF-268; Log10 Concentration −8.0,1.843
same,Percent Growth,SF-268; Log10 Concentration −8.0,99%
same,GI50,CAKI-1,4 µM
same,TGI,CAKI-1,1.67E−5
same,Mean Optical Densities,CAKI-1; Log10 Concentration −4.0,0.032
same,Percent Growth,CAKI-1; Log10 Concentration −4.0,−95%
same,Mean Optical Densities,CAKI-1; Log10 Concentration −5.0,1.287
same,Percent Growth,CAKI-1; Log10 Concentration −5.0,27%
same,Mean Optical Densities,CAKI-1; Log10 Concentration −6.0,2.593
same,Percent Growth,CAKI-1; Log10 Concentration −6.0,84%
same,Mean Optical Densities,CAKI-1; Log10 Concentration −7.0,2.649
same,Percent Growth,CAKI-1; Log10 Concentration −7.0,87%
same,Mean Optical Densities,CAKI-1; Log10 Concentration −8.0,2.814
same,Percent Growth,CAKI-1; Log10 Concentration −8.0,94%

# Source: US9469650B2, “Melampomagnolide B derivatives” (BOARD OF TRUSTEES OF THE UNIVERSITY OF ARKANSAS, priority 2013, dated 2016)
